# Values joined by “and” are separate entries in the source; they are usually repeats but may differ in a detail not shown here. Equal entries are not always repeated.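 Assay format: 96-well plates, 48-hour exposure. GI50: concentration for 50% inhibition of growth. The concentration for full growth arrest is given as TGI.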
# Legend:
# Experiment in all cases: growth of human tumour cells (NCI), 48 h
# HCT-116 colon = system: HCT-116 colon
# CCRF-CEM leukemia = system: CCRF-CEM leukemia
# K-562 leukemia = system: K-562 leukemia
# HCC-2998 colon = system: HCC-2998 colon
# SF-268 CNS = system: SF-268 CNS
# T-47D breast = system: T-47D breast
# KM20L2 colon = system: KM20L2 colon
# OVCAR-5 ovarian = system: OVCAR-5 ovarian
# UACC-62 melanoma = system: UACC-62 melanoma
# 786-0 renal = system: 786-0 renal
# SK-OV-3 ovarian = system: SK-OV-3 ovarian
# SK-MEL-28 melanoma = system: SK-MEL-28 melanoma
# LXFL 529 NSCLC = system: LXFL 529 NSCLC
# UO-31 renal = system: UO-31 renal
# ACHN renal = system: ACHN renal
# U251 CNS = system: U251 CNS
# NCI-H460 lung = system: NCI-H460 lung
# LOX IMVI melanoma = system: LOX IMVI melanoma
# DLD-1 colon = system: DLD-1 colon
# MDA-N = system: MDA-N
# MDA-MB-231 breast = system: MDA-MB-231 breast
# M14 melanoma = system: M14 melanoma
# NCI-H522 lung = system: NCI-H522 lung
# A498 renal = system: A498 renal
# SW-620 colon = system: SW-620 colon
# PC-3 prostate = system: PC-3 prostate
# CAKI-1 renal = system: CAKI-1 renal
# SF-539 CNS = system: SF-539 CNS
# EKVX NSCLC = system: EKVX NSCLC
# SNB-19 CNS = system: SNB-19 CNS
# RXF-631 renal = system: RXF-631 renal
# MCF7 breast = system: MCF7 breast
# OVCAR-8 ovarian = system: OVCAR-8 ovarian
# HT29 colon = system: HT29 colon
# IGROV1 ovarian = system: IGROV1 ovarian
# COLO 205 colon = system: COLO 205 colon
# A549 NSCLC = system: A549 NSCLC
# DMS 273 small cell lung = system: DMS 273 small cell lung
# RPMI-8226 leukemia = system: RPMI-8226 leukemia
# BT-549 breast = system: BT-549 breast
# MDA-MB-435 = system: MDA-MB-435
# UACC-257 melanoma = system: UACC-257 melanoma
# HOP-62 NSCLC = system: HOP-62 NSCLC
# RXF 393 renal = system: RXF 393 renal
# NCI-H226 lung = system: NCI-H226 lung
# HS 578T breast = system: HS 578T breast
# MALME-3M melanoma = system: MALME-3M melanoma
# SNB-75 CNS = system: SNB-75 CNS
# MOLT-4 leukemia = system: MOLT-4 leukemia
# TK-10 renal = system: TK-10 renal
# XF 498 CNS = system: XF 498 CNS
# NCI-H23 lung = system: NCI-H23 lung
# SK-MEL-5 melanoma = system: SK-MEL-5 melanoma
# SR leukemia = system: SR leukemia
# OVCAR-3 ovarian = system: OVCAR-3 ovarian
# SN12C renal = system: SN12C renal
# DU-145 prostate = system: DU-145 prostate
# KM12 colon = system: KM12 colon
# HOP-92 NSCLC = system: HOP-92 NSCLC
# SF-295 CNS = system: SF-295 CNS
# SK-MEL-2 melanoma = system: SK-MEL-2 melanoma
# OVCAR-4 ovarian = system: OVCAR-4 ovarian
# SNB-78 CNS = system: SNB-78 CNS
# HCT-15 colon = system: HCT-15 colon
# HL-60(TB) leukemia = system: HL-60(TB) leukemia
# DMS 114 small cell lung = system: DMS 114 small cell lung
# M19-MEL melanoma = system: M19-MEL melanoma
structure (smiles),measurement,setting,value
O=[N+]([O-])c1cccc2nc3ccccc3c(NCCN(CCO)CCO)c12,TGI,HCT-116 colon,31.1 nM
same,GI50,CCRF-CEM leukemia,15.6 nM
same,TGI,CCRF-CEM leukemia,109 nM
same,GI50,K-562 leukemia,4.76 nM
same,TGI,K-562 leukemia,28.3 nM
same,TGI,HCC-2998 colon,6.74 nM
same,TGI,SF-268 CNS,29.6 nM and 113 nM
same,TGI,T-47D breast,114 nM
same,TGI,KM20L2 colon,69 nM and 29 nM
same,TGI,OVCAR-5 ovarian,23.4 nM
same,TGI,UACC-62 melanoma,11.4 nM
same,TGI,786-0 renal,29.6 nM
same,TGI,SK-OV-3 ovarian,177 nM
same,GI50,SK-MEL-28 melanoma,10.3 nM
same,TGI,SK-MEL-28 melanoma,27 nM and 23 nM
same,TGI,LXFL 529 NSCLC,108 nM and 24.3 nM
same,GI50,UO-31 renal,257 nM
same,TGI,ACHN renal,20.5 nM and 34.5 nM
same,TGI,U251 CNS,26.1 nM
same,TGI,NCI-H460 lung,8.91 nM
same,GI50,LOX IMVI melanoma,11.8 nM
same,TGI,LOX IMVI melanoma,31.9 nM and 33.1 nM
same,TGI,DLD-1 colon,65.8 nM and 580 nM
same,TGI,MDA-N,2.9 nM
same,TGI,MDA-MB-231 breast,9.7 nM
same,TGI,M14 melanoma,8.21 nM
same,TGI,NCI-H522 lung,3.89 nM
same,TGI,A498 renal,11.6 nM
same,TGI,SW-620 colon,23.5 nM and 111 nM
same,TGI,PC-3 prostate,10.9 nM
same,TGI,CAKI-1 renal,23.2 nM and 62.2 nM
same,GI50,SF-539 CNS,13.7 nM
same,TGI,SF-539 CNS,26.6 nM and 59.4 nM
same,GI50,EKVX NSCLC,12.8 nM
same,TGI,EKVX NSCLC,41.1 nM and 52.4 nM
same,TGI,SNB-19 CNS,108 nM and 346 nM
same,TGI,RXF-631 renal,108 nM and 40.5 nM
same,TGI,MCF7 breast,32.2 nM
same,TGI,OVCAR-8 ovarian,23.1 nM and 16.6 nM
same,TGI,HT29 colon,20.2 nM
same,TGI,IGROV1 ovarian,26.5 nM
same,TGI,COLO 205 colon,14.6 nM
same,TGI,A549 NSCLC,33.4 nM
same,TGI,DMS 273 small cell lung,42.2 nM and 24.6 nM
same,TGI,RPMI-8226 leukemia,97.1 nM
same,TGI,BT-549 breast,8.75 nM
same,TGI,MDA-MB-435,2.83 nM
same,GI50,UACC-257 melanoma,49.8 nM
same,TGI,UACC-257 melanoma,224 nM and 23.8 nM
same,TGI,HOP-62 NSCLC,9.91 nM
same,TGI,RXF 393 renal,4.47 nM
same,TGI,NCI-H226 lung,4.1 nM and 19.3 nM
same,TGI,HS 578T breast,30.8 nM
same,TGI,MALME-3M melanoma,6.49 nM
same,TGI,SNB-75 CNS,28.6 nM
same,GI50,MOLT-4 leukemia,4.13 nM
same,TGI,MOLT-4 leukemia,90.3 nM
same,TGI,TK-10 renal,138 nM
same,TGI,XF 498 CNS,24 nM
same,TGI,NCI-H23 lung,5.83 nM
same,TGI,SK-MEL-5 melanoma,5.74 nM and 13 nM
same,TGI,SR leukemia,110 nM
same,TGI,OVCAR-3 ovarian,14.4 nM
same,TGI,SN12C renal,28.7 nM and 85.9 nM
same,TGI,DU-145 prostate,10.8 nM
same,TGI,KM12 colon,20.6 nM
same,TGI,HOP-92 NSCLC,17.1 nM
same,TGI,SF-295 CNS,54.9 nM and 17 nM
same,TGI,SK-MEL-2 melanoma,10.2 nM
same,TGI,OVCAR-4 ovarian,14.7 nM and 81.2 nM
same,TGI,SNB-78 CNS,194 nM and 52.3 nM
same,TGI,HCT-15 colon,66.8 nM and 169 nM
N#CCC(=O)N1CCCOCCC1,TGI,HCT-116 colon,> 100000 nM
same,TGI,CCRF-CEM leukemia,> 100000 nM
same,TGI,K-562 leukemia,> 100000 nM
same,TGI,HCC-2998 colon,> 100000 nM
same,TGI,SF-268 CNS,> 100000 nM
same,TGI,KM20L2 colon,> 100000 nM
same,TGI,OVCAR-5 ovarian,> 100000 nM
same,TGI,UACC-62 melanoma,> 100000 nM
same,TGI,786-0 renal,> 100000 nM
same,TGI,SK-OV-3 ovarian,> 100000 nM
same,TGI,SK-MEL-28 melanoma,> 100000 nM
same,TGI,LXFL 529 NSCLC,> 100000 nM
same,TGI,UO-31 renal,> 100000 nM
same,TGI,ACHN renal,> 100000 nM
same,TGI,U251 CNS,> 100000 nM
same,TGI,HL-60(TB) leukemia,> 100000 nM
same,TGI,NCI-H460 lung,> 100000 nM
same,TGI,LOX IMVI melanoma,> 100000 nM
same,TGI,DLD-1 colon,> 100000 nM
same,TGI,M14 melanoma,> 100000 nM
same,TGI,A498 renal,> 100000 nM
same,TGI,SW-620 colon,24300 nM
same,TGI,CAKI-1 renal,> 100000 nM
same,TGI,SF-539 CNS,> 100000 nM
same,TGI,DMS 114 small cell lung,> 100000 nM
same,TGI,EKVX NSCLC,> 100000 nM
same,TGI,SNB-19 CNS,> 100000 nM
same,TGI,RXF-631 renal,> 100000 nM
same,TGI,HT29 colon,> 100000 nM
same,TGI,IGROV1 ovarian,> 100000 nM
same,TGI,COLO 205 colon,42200 nM
same,TGI,A549 NSCLC,> 100000 nM
same,TGI,DMS 273 small cell lung,> 100000 nM
same,TGI,UACC-257 melanoma,> 100000 nM
same,TGI,HOP-62 NSCLC,> 100000 nM
same,TGI,RXF 393 renal,> 100000 nM
same,TGI,MALME-3M melanoma,> 100000 nM
same,TGI,MOLT-4 leukemia,7360 nM
same,TGI,TK-10 renal,> 100000 nM
same,TGI,NCI-H23 lung,> 100000 nM
same,TGI,SK-MEL-5 melanoma,> 100000 nM
same,TGI,M19-MEL melanoma,> 100000 nM
same,TGI,SN12C renal,> 100000 nM
same,TGI,KM12 colon,> 100000 nM
same,TGI,SF-295 CNS,> 100000 nM
same,TGI,SK-MEL-2 melanoma,> 100000 nM
same,TGI,OVCAR-4 ovarian,> 100000 nM
same,TGI,SNB-78 CNS,> 100000 nM
same,TGI,HCT-15 colon,37700 nM
